Here are results for one compound from publication PMC4189182 (Journal of cardiac failure, 2014).

For data set [1] the following is noted: human, in vivo.
For data set [2] the following is noted: in vivo; cited from earlier work.

`CC[C@H](C)[C@@H]1NC(=O)[C@H](CCCNC(=N)N)NC(=O)[C@H](CC(=O)O)NC(=O)[C@H](CCSC)NC(=O)[C@H](CCCCN)NC(=O)[C@H](CCCNC(=N)N)NC(=O)CNC(=O)[C@H](Cc2ccccc2)NC(=O)[C@@H](NC(=O)CNC(=O)[C@H](CO)NC(=O)CNC(=O)[C@H](CCC(N)=O)NC(=O)[C@@H](NC(=O)[C@H](CCSC)NC(=O)[C@H](CCCCN)NC(=O)[C@@H]2CCCN2C(=O)[C@@H](N)CO)C(C)C)CSSC[C@@H](C(=O)N[C@@H](CCCCN)C(=O)N[C@H](C(=O)N[C@@H](CC(C)C)C(=O)N[C@@H](CCCN=C(N)N)C(=O)N[C@@H](CCCN=C(N)N)C(=O)N[C@@H](Cc2cnc[nH]2)C(=O)O)C(C)C)NC(=O)CNC(=O)[C@H](CC(C)C)NC(=O)CNC(=O)[C@H](CO)NC(=O)[C@H](CO)NC(=O)[C@H](CO)NC(=O)[C@H](CO)NC1=O` [nesiritide] showed a Halflife in data set [1] of 14.4 min. In data set [1] (iv), the “increase in Clearance associated with genotype at rs6798179 (MME)” value is reported as “roughly 50%”, the “increase in K associated with genotype at rs6798179 (MME)” value is given as “roughly 50%”, the “range of Adjusted BNP Clearance” value lay in the range of 0.1 to 67 mL/min and the “range of BNP Clearance” value is 0.027 to 7.25 mL/min. Moreover, in data set [1] (iv), the “range of Half-life” value is 6.6 to 56.4 min, the “range of K” value was 0.002-9.7, the “range of ΔBNP” value is 14 to 7900 pg/mL and the “smaller change in BNP due to infusion associated with genotype at rs6798179 (MME)” value was roughly 40%. In data set [2], the “previously reported average half-life” value is reported as “roughly 18 minutes”.
